# ± gives the expanded uncertainty stated by the source.
# Details: Liquid, Vibrating tube method
structure (smiles),measurement,setting,value
CCCCCO [pentan-1-ol],mass density,"293.15 K, 100 kPa",814.7 ± 1 kg/m3
same,mass density,"293.15 K, 10000 kPa",821.1 ± 1 kg/m3
same,mass density,"293.15 K, 20000 kPa",827.3 ± 1.1 kg/m3
same,mass density,"293.15 K, 30000 kPa",833.2 ± 1.1 kg/m3
same,mass density,"293.15 K, 40000 kPa",838.6 ± 1.1 kg/m3
same,mass density,"293.15 K, 50000 kPa",843.6 ± 1.1 kg/m3
same,mass density,"293.15 K, 60000 kPa",848.5 ± 1.1 kg/m3
same,mass density,"293.15 K, 70000 kPa",853.1 ± 1.1 kg/m3
same,mass density,"293.15 K, 80000 kPa",857.4 ± 1.1 kg/m3
same,mass density,"293.15 K, 90000 kPa",861.7 ± 1.2 kg/m3
same,mass density,"293.15 K, 100000 kPa",865.8 ± 1.2 kg/m3
same,mass density,"293.15 K, 110000 kPa",869.6 ± 1.2 kg/m3
same,mass density,"293.15 K, 120000 kPa",873.2 ± 1.2 kg/m3
same,mass density,"293.15 K, 130000 kPa",876.9 ± 1.2 kg/m3
same,mass density,"293.15 K, 140000 kPa",880.3 ± 1.2 kg/m3
same,mass density,"303.15 K, 100 kPa",807.3 ± 1 kg/m3
same,mass density,"303.15 K, 10000 kPa",814.4 ± 1.1 kg/m3
same,mass density,"303.15 K, 20000 kPa",820.7 ± 1.1 kg/m3
same,mass density,"303.15 K, 30000 kPa",826.7 ± 1.1 kg/m3
same,mass density,"303.15 K, 40000 kPa",832.2 ± 1.1 kg/m3
same,mass density,"303.15 K, 50000 kPa",837.5 ± 1.1 kg/m3
same,mass density,"303.15 K, 60000 kPa",842.4 ± 1.1 kg/m3
same,mass density,"303.15 K, 70000 kPa",847 ± 1.1 kg/m3
same,mass density,"303.15 K, 80000 kPa",851.6 ± 1.1 kg/m3
same,mass density,"303.15 K, 90000 kPa",855.8 ± 1.2 kg/m3
same,mass density,"303.15 K, 100000 kPa",860.1 ± 1.2 kg/m3
same,mass density,"303.15 K, 110000 kPa",864.1 ± 1.2 kg/m3
same,mass density,"303.15 K, 120000 kPa",868 ± 1.2 kg/m3
same,mass density,"303.15 K, 130000 kPa",871.7 ± 1.2 kg/m3
same,mass density,"303.15 K, 140000 kPa",875.2 ± 1.2 kg/m3
same,mass density,"313.15 K, 100 kPa",799.8 ± 1.1 kg/m3
same,mass density,"313.15 K, 10000 kPa",807.4 ± 1.1 kg/m3
same,mass density,"313.15 K, 20000 kPa",814.1 ± 1.1 kg/m3
same,mass density,"313.15 K, 30000 kPa",820.2 ± 1.1 kg/m3
same,mass density,"313.15 K, 40000 kPa",826 ± 1.1 kg/m3
same,mass density,"313.15 K, 50000 kPa",831.5 ± 1.1 kg/m3
same,mass density,"313.15 K, 60000 kPa",836.6 ± 1.1 kg/m3
same,mass density,"313.15 K, 70000 kPa",841.4 ± 1.1 kg/m3
same,mass density,"313.15 K, 80000 kPa",846.1 ± 1.2 kg/m3
same,mass density,"313.15 K, 90000 kPa",850.5 ± 1.2 kg/m3
same,mass density,"313.15 K, 100000 kPa",854.8 ± 1.2 kg/m3
same,mass density,"313.15 K, 110000 kPa",858.9 ± 1.2 kg/m3
same,mass density,"313.15 K, 120000 kPa",862.8 ± 1.2 kg/m3
same,mass density,"313.15 K, 130000 kPa",866.6 ± 1.2 kg/m3
same,mass density,"313.15 K, 140000 kPa",870.2 ± 1.3 kg/m3
same,mass density,"323.15 K, 100 kPa",792.5 ± 1.1 kg/m3
same,mass density,"323.15 K, 10000 kPa",800.3 ± 1.1 kg/m3
same,mass density,"323.15 K, 20000 kPa",807.3 ± 1.1 kg/m3
same,mass density,"323.15 K, 30000 kPa",813.7 ± 1.1 kg/m3
same,mass density,"323.15 K, 40000 kPa",819.8 ± 1.1 kg/m3
same,mass density,"323.15 K, 50000 kPa",825.4 ± 1.1 kg/m3
same,mass density,"323.15 K, 60000 kPa",830.7 ± 1.1 kg/m3
same,mass density,"323.15 K, 70000 kPa",835.7 ± 1.1 kg/m3
same,mass density,"323.15 K, 80000 kPa",840.4 ± 1.2 kg/m3
same,mass density,"323.15 K, 90000 kPa",845 ± 1.2 kg/m3
same,mass density,"323.15 K, 100000 kPa",849.3 ± 1.2 kg/m3
same,mass density,"323.15 K, 110000 kPa",853.6 ± 1.2 kg/m3
same,mass density,"323.15 K, 120000 kPa",857.6 ± 1.2 kg/m3
same,mass density,"323.15 K, 130000 kPa",861.5 ± 1.3 kg/m3
same,mass density,"323.15 K, 140000 kPa",865.3 ± 1.3 kg/m3
same,mass density,"333.15 K, 100 kPa",784.4 ± 1.1 kg/m3
same,mass density,"333.15 K, 10000 kPa",792.7 ± 1.1 kg/m3
same,mass density,"333.15 K, 20000 kPa",800.1 ± 1.1 kg/m3
same,mass density,"333.15 K, 30000 kPa",806.8 ± 1.1 kg/m3
same,mass density,"333.15 K, 40000 kPa",813.1 ± 1.1 kg/m3
same,mass density,"333.15 K, 50000 kPa",818.9 ± 1.1 kg/m3
same,mass density,"333.15 K, 60000 kPa",824.4 ± 1.1 kg/m3
same,mass density,"333.15 K, 70000 kPa",829.7 ± 1.2 kg/m3
same,mass density,"333.15 K, 80000 kPa",834.6 ± 1.2 kg/m3
same,mass density,"333.15 K, 90000 kPa",839.2 ± 1.2 kg/m3
same,mass density,"333.15 K, 100000 kPa",843.7 ± 1.2 kg/m3
same,mass density,"333.15 K, 110000 kPa",848 ± 1.2 kg/m3
same,mass density,"333.15 K, 120000 kPa",852.1 ± 1.3 kg/m3
same,mass density,"333.15 K, 130000 kPa",856 ± 1.3 kg/m3
same,mass density,"333.15 K, 140000 kPa",860 ± 1.3 kg/m3
same,mass density,"343.15 K, 100 kPa",776.5 ± 1.1 kg/m3
same,mass density,"343.15 K, 10000 kPa",785.2 ± 1.1 kg/m3
same,mass density,"343.15 K, 20000 kPa",792.9 ± 1.1 kg/m3
same,mass density,"343.15 K, 30000 kPa",799.9 ± 1.1 kg/m3
same,mass density,"343.15 K, 40000 kPa",806.6 ± 1.1 kg/m3
same,mass density,"343.15 K, 50000 kPa",812.6 ± 1.1 kg/m3
same,mass density,"343.15 K, 60000 kPa",818.3 ± 1.1 kg/m3
same,mass density,"343.15 K, 70000 kPa",823.7 ± 1.2 kg/m3
same,mass density,"343.15 K, 80000 kPa",828.7 ± 1.2 kg/m3
same,mass density,"343.15 K, 90000 kPa",833.5 ± 1.2 kg/m3
same,mass density,"343.15 K, 100000 kPa",838.2 ± 1.2 kg/m3
same,mass density,"343.15 K, 110000 kPa",842.5 ± 1.3 kg/m3
same,mass density,"343.15 K, 120000 kPa",846.8 ± 1.3 kg/m3
same,mass density,"343.15 K, 130000 kPa",850.9 ± 1.3 kg/m3
same,mass density,"343.15 K, 140000 kPa",854.8 ± 1.3 kg/m3

# Reference: the NIST ThermoML archive (doi:10.1016/j.fluid.2008.06.007)
